Source: patent US20220160617A1, “COMPOSITIONS AND METHODS FOR IMPROVING SKIN HEALTH AND FOR THE TREATMENT AND PREVENTION OF DISEASES, DISORDERS AND CONDITIONS ASSOCIATED WITH PATHOGENIC MICROBES” (DermBiont, Inc., priority 2019, published 2022)
Values after ≈ are worked out from the molar mass of the structure shown. Like-named read-outs stand apart in the source and are kept apart here.

Columns and labels:
E. Coli ATCC25922 [1] = assay: Antibiotic MIC test; format: cell-based
[2] = system: Janthinobacterium lividum strains; assay: Antibiotic MIC tests, sensitivity summary; format: cell-based
Experimental: (§1) The antibiotic resistance profile and MICs tests were performed using Janthinobacterium lividum grown from cultures purified and grown in vegitone LB broth.

[3] = system: Janthinobacterium lividum DB02473; assay: Antibiotic MIC test; format: cell-based
Experimental: as §1

[4] = system: Janthinobacterium lividum DB00121; assay: Antibiotic MIC test; format: cell-based
Experimental: as §1

[5] = system: Janthinobacterium lividum DB02378; assay: Antibiotic MIC test; format: cell-based
Experimental: as §1

[6] = system: Janthinobacterium lividum DB00118; assay: Antibiotic MIC test; format: cell-based
Experimental: as §1

[7] = system: Janthinobacterium lividum (DBI001); assay: Biolog Phenotype MicroArray: components enhancing growth of Janthinobacterium in media; format: cell-based
E. Coli ATCC25922 [8] = settings: cited from earlier work
[9] = system: Janthinobacterium lividum strains; assay: Internal antibiotic resistance test (BD BBL Sensi-Disc zone of inhibition); format: cell-based; settings: all 5 strains; disc content per antibiotic
Experimental: One Janthinobacterium lividum colony of 3-day old grown in 50% BHI agar was mixed well in 1 ml of 1×PBS buffer, diluted 10× and 100×, respectively. 200 μl of diluted Janthinobacterium lividum cells were evenly plated onto R2A/BHI agar plates in triplicate in 150 mm petri dishes. Antibiotic discs (BD BBL Sensi-Disc antimicrobial susceptibility test discs) were dispensed using a Disc dispenser (BD BBL Sensi-Disc Designer Dispenser System, 12-Place). Plates were incubated for 2-3 days at room temperature and imaged at the end of incubation.
The sensitivity of Janthinobacterium lividum to antibiotics is reflected by a clear zone of inhibition of Janthinobacterium lividum cells surrounding the antibiotic discs. The zone of inhibition was measured using ImageJ and was transformed into cm for analysis.

[10] = system: fungal or bacterial pathogens; format: cell-based; settings: components for enhancing function of human-derived Janthinobacterium lividum
[11] = Janthinobacterium lividum, DB02378
[12] = Janthinobacterium lividum, DB00121

For Amoxicillin clavulanate, the MIC (E. Coli ATCC25922 [1]) was 8 µg/mL, the “sensitivity of Janthinobacterium lividum strains to antibiotic” value [2] was “less sensitive” and the MIC ([3]; strain DB02473) was 1 µg/mL. The MIC ([4]; strain DB00121) was 0.5 µg/mL, the MIC ([5]; strain DB02378) was 1 µg/mL and the MIC ([6]; strain DB00118) was 1 µg/mL.
For `OC[C@@H](O)[C@@H](O)[C@H](O)[C@H](O)CO` [D-Mannitol], the “improvement of growth of human-derived Janthinobacterium lividum” value [7] was “improve the growth”.
Molecule `CN(C)c1ccc(O)c2c1C[C@H]1C[C@H]3[C@H](N(C)C)C(O)=C(C(N)=O)C(=O)[C@@]3(O)C(O)=C1C2=O` [Minocycline] has an MIC [5, 11] of 0.125 µg/mL (≈ 0.273 µM) and an MIC ([6]; Janthinobacterium lividum, DB00118) of 0.125 µg/mL (≈ 0.273 µM).
With `C[C@H]1COc2c(N3CCN(C)CC3)c(F)cc3c(=O)c(C(=O)O)cn1c23` [Levofloxacin] the MIC [4, 12] was 0.125 µg/mL (≈ 0.346 µM).
In the case of `CCC[C@@H]1C[C@@H](C(=O)N[C@@H]([C@H]2O[C@H](SC)[C@H](O)[C@@H](O)[C@H]2O)[C@H](C)Cl)N(C)C1` [Clindamycin], the MIC (E. Coli ATCC25922 [1]; Escherichia coli, read-out: MIC) is reported as over 64 µg/mL.
For Neomycin, the MIC (E. Coli ATCC25922 [1]) was 2 µg/mL, the MIC ([3]; strain DB02473) was 2 µg/mL and the MIC ([4]; strain DB00121) was 1 µg/mL. For the same molecule, the MIC ([5]; strain DB02378) was 2 µg/mL and the MIC ([6]; strain DB00118) was 2 µg/mL.
For `O=C(N[C@H](CO)[C@H](O)c1ccc([N+](=O)[O-])cc1)C(Cl)Cl` [Chloramphenicol], the “sensitivity of Janthinobacterium lividum strains to antibiotic” value [2] is given as “less sensitive”, the “MIC, CLSI QC ranges” value (E. Coli ATCC25922 [8]) is given as 2 to 8 µg/mL and the “sensitivity of Janthinobacterium lividum to antibiotic disc” value [9] is given as “sensitive”.
With Tween 40 the “Concentration Range of Efficacy” value [10] was 2 to 20 mM and the “improvement of growth of human-derived Janthinobacterium lividum” value [7] was “improve the growth”.
For `CO/N=C(\C(=O)N[C@@H]1C(=O)N2C(C(=O)[O-])=C(C[N+]3(C)CCCC3)CS[C@H]12)c1csc(N)n1` [Cefepime], the MIC ([3]; Janthinobacterium lividum, DB02473) was 0.125 µg/mL (≈ 0.26 µM), the MIC [4, 12] was 0.125 µg/mL (≈ 0.26 µM) and the MIC [5, 11] was 0.125 µg/mL (≈ 0.26 µM). The “MIC, CLSI QC ranges” value (E. Coli ATCC25922 [8]) was 0.016 to 0.12 µg/mL.
For `C[C@@H](O)[C@H]1C(=O)N2C(C(=O)O)=C(S[C@@H]3CN[C@H](C(=O)N(C)C)C3)[C@H](C)[C@H]12` [Meropenem], the “sensitivity of Janthinobacterium lividum strains to antibiotic” value [2] is given as “less sensitive” and the “MIC, CLSI QC ranges” value (E. Coli ATCC25922 [8]) is given as 0.008 to 0.06 µg/mL.
In the case of `C[C@H]1[C@H](NC(=O)/C(=N\OC(C)(C)C(=O)O)c2csc(N)n2)C(=O)N1S(=O)(=O)O` [Aztreonam], the “sensitivity of Janthinobacterium lividum strains to antibiotic” value [2] is given as “less sensitive” and the “MIC, CLSI QC ranges” value (E. Coli ATCC25922 [8]) is given as 0.06 to 0.25 µg/mL.
